Reference: patent US20240270750A1, “IMIDAZOLE-CONTAINING INHIBITORS OF ALK2 KINASE” (BioCryst Pharmaceuticals, Inc., priority 2021, published 2024)
Structures can show the parent of a compound that is named as a salt.

The molecules below were run against T1, ALK2 (Homo sapiens, UniProt Q04771) (assay: LanthaScreen Eu Kinase Binding Assay, ALK2 inhibition). Conditions: 1 micromolar concentration.
T1 construct: purchased ThermoFisher Scientific (Life Technologies)
T1 sequence (Q04771 21-509): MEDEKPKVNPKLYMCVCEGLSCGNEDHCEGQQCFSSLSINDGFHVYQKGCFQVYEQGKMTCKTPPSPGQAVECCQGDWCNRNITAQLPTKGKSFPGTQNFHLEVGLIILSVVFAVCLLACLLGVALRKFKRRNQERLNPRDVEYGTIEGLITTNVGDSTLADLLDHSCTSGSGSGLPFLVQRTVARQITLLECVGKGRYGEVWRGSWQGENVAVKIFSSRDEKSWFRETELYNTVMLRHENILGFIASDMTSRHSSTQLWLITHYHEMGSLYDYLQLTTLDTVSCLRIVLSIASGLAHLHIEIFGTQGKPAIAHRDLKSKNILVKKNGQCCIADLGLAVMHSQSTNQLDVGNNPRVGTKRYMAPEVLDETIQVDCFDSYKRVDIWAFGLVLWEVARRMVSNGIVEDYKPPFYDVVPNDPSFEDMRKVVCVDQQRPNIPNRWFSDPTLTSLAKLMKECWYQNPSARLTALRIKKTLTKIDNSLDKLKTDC
Description: Biochemical assays to measure the inhibitory effects of the compounds were performed by ThermoFisher Scientific (Life Technologies). ALK2 inhibition was tested using LanthaScreen™ Eu Kinase Binding Assay screening protocol.
An inhibition at 1 µM of over 50% was found for `COc1cc(-n2cnc(Nc3nc(C(C)C)nc4c(C)csc34)c2)cc(OC)c1OC` [Compound 96a, 2-isopropyl-7-methyl-N-(1-(3,4,5-trimethoxyphenyl)-1H-imidazol-4-yl)thieno[3,2-d]pyrimidin-4-amine] in this work.
An inhibition at 1 µM of over 50% was found for `COc1cc(-n2cnc(Nc3nc(C(C)C)nc4ncccc34)c2)cc(OC)c1OC` [Compound 102e, 2-isopropyl-N-(1-(3,4,5-trimethoxyphenyl)-1H-imidazol-4-yl)pyrido[2,3-d]pyrimidin-4-amine] in this work.
An inhibition at 1 µM of over 50% was found for `COc1cc(-n2cnc(Nc3nc(C4CC4)nc4c(C(C)C)cnn34)c2)cc(OC)c1OC` [Compound 111d, 2-cyclopropyl-8-isopropyl-N-(1-(3,4,5-trimethoxyphenyl)-1H-imidazol-4-yl)pyrazolo[1,5-a][1,3,5]triazin-4-amine] in this work.
An inhibition at 1 µM of over 50% was found for `COc1cc(-n2cnc(Nc3nc(CC4CC4)nc4c3cnn4C3CC3)c2)cc(OC)c1OC` [Compound 122e, 1-cyclopropyl-6-(cyclopropylmethyl)-N-(1-(3,4,5-trimethoxyphenyl)-1H-imidazol-4-yl)-1H-pyrazolo[3,4-d]pyrimidin-4-amine] in this work.
An inhibition at 1 µM of over 50% was found for `COc1cc(-n2cnc(Nc3nc(C(C)C)nc4ccsc34)c2)cc(OC)c1OC` [Compound 52b, 2-isopropyl-N-(1-(3,4,5-trimethoxyphenyl)-1H-imidazol-4-yl)thieno[3,2-d]pyrimidin-4-amine hydrochloride] in this work.
An inhibition at 1 µM of over 50% was found for `COc1cc(-n2cnc(Nc3nc(CC4CC4)nc4c3cnn4CC(C)C)c2)cc(OC)c1OC` [Compound 126e, 6-(cyclopropylmethyl)-1-isobutyl-N-(1-(3,4,5-trimethoxyphenyl)-1H-imidazol-4-yl)-1H-pyrazolo[3,4-d]pyrimidin-4-amine] in this work.
An inhibition at 1 µM of over 50% was found for `COc1cc(-n2cnc(Nc3nc(C4=CN(C(=O)OC(C)(C)C)CC4)nc4c3cnn4C(C)C)c2)cc(OC)c1OC` [Compound 40b, tert-butyl 4-(1-isopropyl-4-((1-(3,4,5-trimethoxyphenyl)-1H-imidazol-4-yl)amino)-1H-pyrazolo[3,4-d]pyrimidin-6-yl)-2,3-dihydro-1H-pyrrole-1-carboxylate] in this work.
An inhibition at 1 µM of over 50% was found for `COc1cc(-n2cnc(Nc3nc(C4=CCN(C)CC4)nc4c3cnn4C(C)C)c2)cc(OC)c1OC` [Compound 38b, 1-isopropyl-6-(1-methyl-1,2,3,6-tetrahydropyridin-4-yl)-N-(1-(3,4,5-trimethoxyphenyl)-1H-imidazol-4-yl)-1H-pyrazolo[3,4-d]pyrimidin-4-amine] in this work.
An inhibition at 1 µM of over 50% was found for `CCCCCn1ncc2c(Nc3cn(-c4cc(OC)c(OC)c(OC)c4)cn3)nc(C(C)C)nc21` [Compound 16c, 6-isopropyl-1-pentyl-N-(1-(3,4,5-trimethoxyphenyl)-1H-imidazol-4-yl)-1H-pyrazolo[3,4-d]pyrimidin-4-amine] in this work.
An inhibition at 1 µM of over 50% was found for `C=C(C)c1nc(Nc2cn(-c3cc(OC)c(OC)c(OC)c3)cn2)c2cccnc2n1` [Compound 82c, 2-(prop-1-en-2-yl)-N-(1-(3,4,5-trimethoxyphenyl)-1H-imidazol-4-yl)pyrido[2,3-d]pyrimidin-4-amine] in this work.
An inhibition at 1 µM of over 50% was found for `C=C(C)c1nc(Nc2cn(-c3cc(OC)c(OC)c(OC)c3)cn2)c2ccc(OC)cc2n1` [Compound 64c, 7-methoxy-2-(prop-1-en-2-yl)-N-(1-(3,4,5-trimethoxyphenyl)-1H-imidazol-4-yl)quinazolin-4-amine] in this work.
An inhibition at 1 µM of over 50% was found for `C=CCC(C)c1nc(Nc2cn(-c3cc(OC)c(OC)c(OC)c3)cn2)c2cnn(C(C)C)c2n1` (stereo not shown) [Compound 27f, 1-isopropyl-6-(pent-4-en-2-yl)-N-(1-(3,4,5-trimethoxyphenyl)-1H-imidazol-4-yl)-1H-pyrazolo[3,4-d]pyrimidin-4-amine] in this work.
An inhibition at 1 µM of over 50% was found for `COc1cc(-n2cnc(Nc3nc(C=C(C)C)nc4c3cnn4C(C)C)c2)cc(OC)c1OC` [Compound 5b, 1-isopropyl-6-(2-methylprop-1-en-1-yl)-N-(1-(3,4,5-trimethoxyphenyl)-1H-imidazol-4-yl)-1H-pyrazolo[3,4-d]pyrimidin-4-amine] in this work.
An inhibition at 1 µM of over 50% was found for `COc1cc(-n2cnc(Nc3nc(C4CC4)c4cnn(C(C)C)c4n3)c2)cc(OC)c1OC` [Compound 13b, 4-cyclopropyl-1-isopropyl-N-(1-(3,4,5-trimethoxyphenyl)-1H-imidazol-4-yl)-1H-pyrazolo[3,4-d]pyrimidin-6-amine] in this work.
An inhibition at 1 µM of over 50% was found for `COc1cc(-n2cnc(Nc3nc(C(C)C)nc4c3cnn4CC3CCCC3)c2)cc(OC)c1OC` [Compound 24c, 1-(cyclopentylmethyl)-6-isopropyl-N-(1-(3,4,5-trimethoxyphenyl)-1H-imidazol-4-yl)-1H-pyrazolo[3,4-d]pyrimidin-4-amine] in this work.
An inhibition at 1 µM of over 50% was found for `COc1cc(-n2cnc(Nc3nc(C(C)CC(O)CO)nc4c3cnn4C(C)C)c2)cc(OC)c1OC` (stereo not shown) [Compound 47a, 4-(1-isopropyl-4-((1-(3,4,5-trimethoxyphenyl)-1H-imidazol-4-yl)amino)-1H-pyrazolo[3,4-d]pyrimidin-6-yl)pentane-1,2-diol] in this work.
An inhibition at 1 µM of over 50% was found for `C=C(C)c1nc2c(c(Nc3cn(-c4cc(OC)c(OC)c(OC)c4)cn3)n1)CCCC2` [Compound 88c, 2-(prop-1-en-2-yl)-N-(1-(3,4,5-trimethoxyphenyl)-1H-imidazol-4-yl)-5,6,7,8-tetrahydroquinazolin-4-amine] in this work.
An inhibition at 1 µM of over 50% was found for `COc1cc(-n2cnc(Nc3nc(C(C)C)nc4c3OCC4)c2)cc(OC)c1OC` [Compound 69a, 2-isopropyl-N-(1-(3,4,5-trimethoxyphenyl)-1H-imidazol-4-yl)-6,7-dihydrofuro[3,2-d]pyrimidin-4-amine] in this work.
An inhibition at 1 µM of over 50% was found for `C=C(C)c1nc(Nc2cn(-c3cc(OC)c(OC)c(OC)c3)cn2)nc2cc(OC)c(OC)cc12` [Compound 68b, 6,7-dimethoxy-4-(prop-1-en-2-yl)-N-(1-(3,4,5-trimethoxyphenyl)-1H-imidazol-4-yl)quinazolin-2-amine] in this work.
An inhibition at 1 µM of over 50% was found for `COc1cc(-n2cnc(Nc3nc(C(C)CCO)nc4c3cnn4C(C)C)c2)cc(OC)c1OC` (stereo not shown) [Compound 49b, 3-(1-isopropyl-4-((1-(3,4,5-trimethoxyphenyl)-1H-imidazol-4-yl)amino)-1H-pyrazolo[3,4-d]pyrimidin-6-yl)butan-1-ol] in this work.
An inhibition at 1 µM of over 50% was found for `C=C(C)c1nc(Nc2cn(-c3cc(OC)c(OC)c(OC)c3)cn2)nc2sccc12` [Compound 90b, 4-(prop-1-en-2-yl)-N-(1-(3,4,5-trimethoxyphenyl)-1H-imidazol-4-yl)thieno[2,3-d]pyrimidin-2-amine] in this work.
An inhibition at 1 µM of under 50% was found for `COc1cc2nc(C(C)C)nc(Nc3cn(-c4cc(OC)c(OC)c(OC)c4)cn3)c2cc1OC` [Compound 79a, 2-isopropyl-6,7-dimethoxy-N-(1-(3,4,5-trimethoxyphenyl)-1H-imidazol-4-yl)quinazolin-4-amine] in this work.
An inhibition at 1 µM of over 50% was found for `COc1cc(-n2cnc(Nc3nc(CC(C)C)nc4c3cnn4C(C)C)c2)cc(OC)c1OC` [Compound 6a, 6-isobutyl-1-isopropyl-N-(1-(3,4,5-trimethoxyphenyl)-1H-imidazol-4-yl)-1H-pyrazolo[3,4-d]pyrimidin-4-amine] in this work.
An inhibition at 1 µM of over 50% was found for `COc1cc(-n2cnc(Nc3nc(CC4CC4)nc4c3cnn4C34CC(C3)C4)c2)cc(OC)c1OC` [Compound 123e, 1-(bicyclo[1.1.1]pentan-1-yl)-6-(cyclopropylmethyl)-N-(1-(3,4,5-trimethoxyphenyl)-1H-imidazol-4-yl)-1H-pyrazolo[3,4-d]pyrimidin-4-amine] in this work.
An inhibition at 1 µM of over 50% was found for `COc1cc(-n2cnc(Nc3nc(C(C)C)nc4c3CCNC4)c2)cc(OC)c1OC` [Compound 86a, 2-isopropyl-N-(1-(3,4,5-trimethoxyphenyl)-1H-imidazol-4-yl)-5,6,7,8-tetrahydropyrido[3,4-d]pyrimidin-4-amine] in this work.
An inhibition at 1 µM of over 50% was found for `COc1cc(-n2cnc(Nc3nc(C(C)C)c4cnn(C(C)C)c4n3)c2)cc(OC)c1OC` [Compound 8b, 1,4-diisopropyl-N-(1-(3,4,5-trimethoxyphenyl)-1H-imidazol-4-yl)-1H-pyrazolo[3,4-d]pyrimidin-6-amine] in this work.
An inhibition at 1 µM of over 50% was found for `COc1cc(-n2cnc(Nc3nc(C(C)C)c4ccsc4n3)c2)cc(OC)c1OC` [Compound 91a, 4-isopropyl-N-(1-(3,4,5-trimethoxyphenyl)-1H-imidazol-4-yl)thieno[2,3-d]pyrimidin-2-amine] in this work.
An inhibition at 1 µM of over 50% was found for `COc1cc(-n2cnc(Nc3nc(C(C)C)nc4c3COC4)c2)cc(OC)c1OC` [Compound 72a, 2-isopropyl-N-(1-(3,4,5-trimethoxyphenyl)-1H-imidazol-4-yl)-5,7-dihydrofuro[3,4-d]pyrimidin-4-amine] in this work.
An inhibition at 1 µM of under 50% was found for `COc1cc(-n2cnc(Nc3cc(C4CC4)nc4c(C(C)C)cnn34)c2)cc(OC)c1OC` [Compound 110d, 5-cyclopropyl-3-isopropyl-N-(1-(3,4,5-trimethoxyphenyl)-1H-imidazol-4-yl)pyrazolo[1,5-a]pyrimidin-7-amine] in this work.
An inhibition at 1 µM of over 50% was found for `COc1cc(-n2cnc(Nc3nc(C(C)C)nc4cccnc34)c2)cc(OC)c1OC` [Compound 83a, 2-isopropyl-N-(1-(3,4,5-trimethoxyphenyl)-1H-imidazol-4-yl)pyrido[3,2-d]pyrimidin-4-amine] in this work.
An inhibition at 1 µM of over 50% was found for `COc1cc(-n2cnc(NC3=NC(C(C)C)=NC4C=COC34)c2)cc(OC)c1OC` (stereo not shown) [Compound 105a, 2-isopropyl-N-(1-(3,4,5-trimethoxyphenyl)-1H-imidazol-4-yl)-4a,7a-dihydrofuro[3,2-d]pyrimidin-4-amine] in this work.
